The target of assay [1] is T1, 125I-TSP-1 binding to HRGP (Homo sapiens, UniProt P07996).
T1 construct: TSP-1 was purified from human platelet releasate; from tissue; host or cells: TSP-1 from human platelet releasate; HRGP from human plasma
The experiment in a line: Solid phase binding assay, competition with CD36 fusion proteins. The settings on record: increasing concentrations of fusion protein. As to the method:
Solid phase binding assays were performed as described (18). Briefly, HRGP in carbonate buffer was immobilized on 96-well strips (Immulon-4 Remove-a-well, Dynatech Laboratories Inc., Burlington, Mass., USA) overnight at 4° C. After blocking with 1% BSA, ^125I-TSP-1 was incubated in the presence of varying concentrations of CD36-FP in triplicate, and bound radioactivity was quantified on a gamma counter. Non-specific binding was determined by carrying out binding in the presence of excess unlabeled ligand.
TSP-1 binding to HRGP: competition with CD36.

Another assay addresses T2, binding of HRGP to TSP-1 (Homo sapiens, UniProt P04196).
T2 construct: from tissue; host or cells: HRGP from human plasma; TSP-1 from human platelet releasate
T2 sequence (P04196 19-525): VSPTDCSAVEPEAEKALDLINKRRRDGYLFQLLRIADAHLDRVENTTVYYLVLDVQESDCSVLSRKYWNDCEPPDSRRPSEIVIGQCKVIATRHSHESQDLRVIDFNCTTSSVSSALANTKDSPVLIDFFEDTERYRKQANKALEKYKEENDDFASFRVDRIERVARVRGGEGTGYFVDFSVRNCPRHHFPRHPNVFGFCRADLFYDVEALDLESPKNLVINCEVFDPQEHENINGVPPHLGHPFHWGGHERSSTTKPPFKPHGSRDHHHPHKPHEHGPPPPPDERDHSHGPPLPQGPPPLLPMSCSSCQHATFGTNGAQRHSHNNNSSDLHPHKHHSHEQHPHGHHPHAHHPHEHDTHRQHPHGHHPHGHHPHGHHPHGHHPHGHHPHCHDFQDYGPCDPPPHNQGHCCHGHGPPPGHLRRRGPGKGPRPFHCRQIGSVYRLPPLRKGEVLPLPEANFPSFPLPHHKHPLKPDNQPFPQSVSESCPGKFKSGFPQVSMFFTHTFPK
The experiment in a line: ELISA of HRGP binding to immobilized TSP-1 in presence of peptides. The settings on record: for inhibition of binding of HRGP to immobilized TSP-1: peptide 50 μM. As to the method: (§1) Enzyme-linked immunosorbent assays (ELISA) were performed as described (6). Briefly, TSP-1 (4μg/ml) in coating buffer (0.5M sodium carbonate, pH 9.6) was applied to microtiter plates (Becton Dickinson, Lincoln Park, N.J., USA) for 3 hours at 37° C. After washing with wash buffer (0.05% Tween in 20 mM Tris, 150mM NaCl, pH 7.5), and blocking for 1 hour at 37° C. with 1% BSA in Tris-Tween, HRGP in varying amounts in the presence and absence of peptide was added for 18h at 4° C. After washing, alkaline phosphatase-conjugated anti-HRGP or nonimmune rabbit Fab'2 was added for 3h at 37° C., after which p-nitrophenyl phosphate substrate was added and optical density (OD) at 405 nm was read in a microplate reader (Molecular Devices, Menlo Park, Calif., USA).
(§2) HRGP or plasminogen binding to TSP-1 immobilized on plastic wells was measured by enzyme-linked immunosorbent assay (ELISA) as described above, using an alkaline phosphatase-conjugated anti-HRGP antibody and p-nitrophenyl phosphate substrate.
(§3) As an additional control, the binding of plasminogen to TSP-1 was measured.
Varying amounts of HRGP were added alone or in the presence of increasing concentrations of the peptide CSVTCG to TSP-1 coated wells. Binding was measured by ELISA as described above.
In general terms: ELISA stands for enzyme-linked immunosorbent assay.

The subject of a further assay is C57B1/6 mice. The experiment in a line: In vivo subcutaneous Matrigel plug assay. As to the method: In vivo subcutaneous Matrigel plug assays were performed as described (23). Briefly, 500 μl of Matrigel mixed with proteins or growth factors was injected subcutaneously near the abdominal midline of C57B1/6 mice. Gels were removed after 10 days, fixed in 1% paraformaldehyde, embedded in paraffin, sectioned, and stained with hematoxylin and eosin. Immunohistochemistry was performed on unstained sections using an anti-human von Willebrand factor (vWF) IgG (Dako, Glostrup, Denmark) or isotype-matched control (Sigma) and a biotin-streptavidin-peroxidase antibody and development system (Vector Laboratories, Burlingame, Calif.) as described (24) and counterstained with Mayer's hematoxylin (ImmunoGenex, San Ramon, Calif., USA). After scanning, the degree of angiogenesis was determined by counts of vWF-positive blood vessels using Scion Image. For breast tissue, frozen sections of freshly obtained human breast carcinoma were incubated with rabbit antibody to HRGP or CSVTCG or murine monoclonal antibody to TSP, or isotype-matched controls (Sigma), and developed as above. These studies were approved by the Institutional Animal Use Committee.
Matrigel mixed was injected subcutaneously into the midline of mice and resulting plugs were harvested after 10 days, fixed, and paraffin embedded, sectioned, stained with. hematoxylin and eosin, and photographed at 200× magnification. […]

The test system of the next assay is CD36 null mice. The experiment in a line: In vivo corneal angiogenesis assay, CD36 null mice. Here is the method:
(§4) FIG. 3. HRGP abrogates the effect of endogenous TSP in the corneal angiogenesis assay. Pellets containing bFGF at various doses with and without HRGP (50 ng) were implanted into the corneas of wild type C57BL/6 (closed symbols) or CD 36 null mice (open symbols), and area of neovascularization was measured after five days. HRGP (--●--) augmented the dose-dependent effect of bFGF (—▪—) in the wild type mice (p=0.0004 by ANOVA). In CD36 null mice, there was an enhanced dose response to bFGF (—□—) (p=0.01), but no effect seen with the addition of HRGP (--◯--). Results represent mean±SE of>6 replicates.
(§5) In vivo corneal angiogenesis assays. Pellets composed of hydron (Hydro Med Sciences, Cranbury, N.J.) and sucralfate (Teva Pharmaceuticals, North Wales, Pa.) were mixed with proteins or growth factors, and were prepared and implanted into the comeas of C57B1/6 mice as described (38). After 5 days, eyes were viewed under a dissecting microscope and photographed with a Sony DKC-1000 digital camera. The area of neovascularization was calculated by measuring vessel length from limbus towards the pellet and number of clock hours of vascularization as described (39, 40). Studies were approved by the Institutional Animal Use Committee.
In fact, the dose response curve of bFGF in wild type mice in the presence of HRGP was similar to that seen with bFGF alone in the CD36 null mice. […]

For assay [2], the system named is Human dermal microvascular EC (HMVEC). The experiment in a line: Endothelial cell chemotaxis assay (modified Boyden chamber). It is filed as cell-based. The settings on record: TSP-1 2 nM; 3 separate experiments. As to the method:
Endothelial Cell (EC) chemotaxis assays were performed as described using a modified Boyden chamber with 8 μm gelatin-coated membranes (22). Briefly, confluent flasks of HMVEC were grown in 0.1% MVGS overnight and plated at 3×10^4 cells per well on a gelatinized porous membrane (Osmonics, Minnetonka, Minn., USA). Reagents were added to wells and cells were allowed to migrate at 5% CO2, 37° C. for 4 hours. Membranes were stained and the number of cells migrating was counted. Results were expressed as the percentage of maximum cells migrating towards bFGF (38-113 cells/10 high power fields) minus the number of cells migrating in the absence of bFGF (4-13cells/10 hpf).
HRGP inhibits the anti-chemotactic effect of TSP-1. Because the type I repeat also mediates the interaction of TSP-1 with HRGP, we studied the effect of HRGP on angiogenesis. EC migration towards bFGF was measured using a modified Boyden chamber with an 8 μm gelatin-coated membrane in the presence and absence of TSP-1 (2 nM) and increasing concentrations of HRGP (0-100 nM). Data from 3 separate experiments are expressed as a percentage of migration in the presence of bFGF alone. We measured migration of CD36-expressing microvascular EC towards bFGF. The addition of TSP-1 inhibited bFGF-induced migration of EC (approx. 30%±3% of control 100% value without added TSP-1). […]

The test system is the same in assay [3]. The experiment in a line: Tube formation assay on Matrigel. The class given is cell-based. The following applies: Matrigel. Here is the method: Tube Formation Assay. Early passage (P2 or P3) HMVEC in 0.2% MVGS were grown on 150 μl of Matrigel (Becton Dickinson, Bedford, Mass., USA) at 3×10^4 cells per well of 48-well plates. Reagents were added and cells were incubated at 5% CO2, 37° C. for 24 hours then photographed. Images were scanned and number of branched structures was counted using Scion Image software (Frederick, Md., USA).
HRGP inhibits the anti-angiogenic effect of TSP-1 in vitro. Microvascular EC were grown on Matrigel under low serum concentrations (0.2%) in the presence of bFGF (2 ng/ml), conditions which are known to induce tube formation. […] The anti-angiogenic activity of TSP-1 was abolished by the addition of HRGP (15 nM), which restored the ability of the EC to form tubular structures. (c).

The test system of a further assay is wild type C57BL/6 mice. The experiment in a line: In vivo corneal angiogenesis assay, wild type mice. As to the method:
as §4, §5
In a second type of in vivo experiment, hydron/sucralfate pellets containing bFGF, TSP-1, and/or HRGP were implanted in the corneas of C57B1/6 mice. […]

The target in assay [4] is binding of plasminogen to TSP-1 (Homo sapiens, UniProt P00747). The settings on record: ELISA; control interaction. As to the method: as §1, §2, §3
The target in assay [5] is T3, binding of radiolabelled HRGP to TSP-1 (Homo sapiens, UniProt P04196).
T3 construct: TSP-1 was purified from human platelet releasate; from tissue; host or cells: HRGP from human plasma; TSP-1 from human platelet releasate
T3 sequence (P04196 19-525): T2 sequence (P04196 19-525)
The experiment in a line: Ligand blot of radiolabelled HRGP on TSP-1. The following applies: autoradiography; CSVTCG peptide at 50 μM.
Method: Ligand Blot: TSP-1 was resolved on an SDS-polyacrylamide gel and electrophoretically blotted onto a polyvinylidene difluoride (PVDF) membrane. The membrane was blocked with 150 mM NaCl, 20 mM Tris (TBS) containing 5% BSA. Following three washes with TBS, washes the membranes were cut into strips and incubated with ligand(s) diluted in TBS, 0.1% BSA for 1 hour, washed, and developed by autoradiography.
Ligand blots show binding of radiolabelled HRGP to TSP-1 that had been subjected to SDS-PAGE and transferred to nitrocellulose, then developed by autoradiography.

T1 sequence (P07996 19-1170): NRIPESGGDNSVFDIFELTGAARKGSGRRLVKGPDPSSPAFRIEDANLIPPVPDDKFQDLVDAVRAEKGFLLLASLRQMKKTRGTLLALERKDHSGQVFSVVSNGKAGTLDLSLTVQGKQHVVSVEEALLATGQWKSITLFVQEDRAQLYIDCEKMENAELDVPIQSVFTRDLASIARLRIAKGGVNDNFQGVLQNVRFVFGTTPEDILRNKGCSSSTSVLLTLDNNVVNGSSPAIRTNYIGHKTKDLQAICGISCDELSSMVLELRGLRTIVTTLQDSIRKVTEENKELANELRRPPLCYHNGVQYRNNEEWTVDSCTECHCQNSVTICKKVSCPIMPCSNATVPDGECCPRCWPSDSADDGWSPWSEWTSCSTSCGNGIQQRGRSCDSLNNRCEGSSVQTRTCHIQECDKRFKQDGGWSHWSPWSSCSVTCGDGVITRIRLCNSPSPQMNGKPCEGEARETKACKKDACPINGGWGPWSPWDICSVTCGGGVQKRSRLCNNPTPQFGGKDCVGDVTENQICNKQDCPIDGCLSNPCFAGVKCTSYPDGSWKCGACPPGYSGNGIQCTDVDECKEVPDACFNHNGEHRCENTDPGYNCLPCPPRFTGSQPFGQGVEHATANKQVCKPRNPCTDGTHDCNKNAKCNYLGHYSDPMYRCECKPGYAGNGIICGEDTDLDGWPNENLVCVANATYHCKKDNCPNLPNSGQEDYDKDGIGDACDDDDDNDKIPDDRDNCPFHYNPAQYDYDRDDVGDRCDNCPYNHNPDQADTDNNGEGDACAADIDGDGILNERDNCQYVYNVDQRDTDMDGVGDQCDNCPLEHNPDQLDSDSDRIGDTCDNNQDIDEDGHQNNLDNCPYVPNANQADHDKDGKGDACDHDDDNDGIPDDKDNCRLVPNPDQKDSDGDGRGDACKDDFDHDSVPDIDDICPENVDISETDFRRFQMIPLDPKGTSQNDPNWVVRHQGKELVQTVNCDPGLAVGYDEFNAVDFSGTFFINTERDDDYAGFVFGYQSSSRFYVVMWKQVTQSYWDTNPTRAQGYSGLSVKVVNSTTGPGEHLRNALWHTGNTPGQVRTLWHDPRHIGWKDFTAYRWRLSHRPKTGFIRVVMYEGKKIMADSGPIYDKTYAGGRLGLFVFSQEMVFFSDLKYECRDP
Sequence of binding of plasminogen to TSP-1 (P00747 20-810 limits assumed): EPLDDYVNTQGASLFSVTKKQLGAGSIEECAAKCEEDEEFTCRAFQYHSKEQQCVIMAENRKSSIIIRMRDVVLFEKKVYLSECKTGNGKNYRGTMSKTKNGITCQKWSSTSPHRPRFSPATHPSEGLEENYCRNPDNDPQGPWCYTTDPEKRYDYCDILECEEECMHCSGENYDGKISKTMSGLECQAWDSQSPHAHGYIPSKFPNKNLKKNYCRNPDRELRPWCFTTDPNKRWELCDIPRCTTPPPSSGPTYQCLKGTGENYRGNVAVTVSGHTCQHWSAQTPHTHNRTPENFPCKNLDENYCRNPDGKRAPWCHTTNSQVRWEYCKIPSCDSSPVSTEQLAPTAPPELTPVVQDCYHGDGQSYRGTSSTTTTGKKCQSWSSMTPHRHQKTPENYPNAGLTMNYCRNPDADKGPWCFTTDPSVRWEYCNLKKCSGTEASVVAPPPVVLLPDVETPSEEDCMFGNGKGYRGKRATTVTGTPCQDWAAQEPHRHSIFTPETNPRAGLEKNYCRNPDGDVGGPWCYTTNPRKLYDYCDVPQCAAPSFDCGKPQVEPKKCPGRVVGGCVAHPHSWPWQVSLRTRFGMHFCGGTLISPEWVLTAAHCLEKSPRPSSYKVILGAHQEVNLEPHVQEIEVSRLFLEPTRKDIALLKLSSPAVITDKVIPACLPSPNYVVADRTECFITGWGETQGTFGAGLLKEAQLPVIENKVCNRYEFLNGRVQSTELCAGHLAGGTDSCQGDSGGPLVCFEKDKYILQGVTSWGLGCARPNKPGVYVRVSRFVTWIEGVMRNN

For “CD36 FP93-120: CD36-glutathione-S-transferase (GST) fusion protein shown to bind TSP-1 (YRVRFLAKENVTQDAEDNTVSFLQPNGA; left off: a dimerising Fc or GST)”, the “inhibition of 125I-TSP-1 binding to immobilized HRGP” value in assay [1] was “inhibited”.

Regarding “GST: glutathione-S-transferase alone, control”, the “inhibition of 125I-TSP-1 binding to immobilized HRGP” value in assay [1] was “had no effect”.

For the substance RGDS: control TSP-1 peptide, the “inhibition of binding of HRGP to immobilized TSP-1” value (“inhibition of binding of HRGP” below) with binding of HRGP to TSP-1 is “not and had no effect”.

“TSP-1: 450 kDa homotrimeric adhesive glycoprotein purified from human platelet releasate; inhibitor of angiogenesis”: in the assay with C57B1/6 mice (TSP-1 added to bFGF in Matrigel, 10 days), the “blood vessels/mm^2, % of that seen with bFGF” value amounted to 14±8%. Moreover, the “inhibition of bFGF-induced angiogenesis” value in the assay with CD36 null mice (CD36 null mice) is recorded as “did not inhibit”. For the same substance, in assay [2], the “EC migration towards bFGF, percentage of control without added TSP-1” value is “approx. 30%±3%”. The “effect on bFGF-induced tube formation by EC” value in [3] (TSP-1 2 nM, bFGF 2 ng/ml, 0.2% serum) is on record as “inhibited”.

Turning to TVSGCC: scrambled peptide control, the “inhibition of binding of HRGP” value in the assay with binding of HRGP to TSP-1 was “not and had no effect”.

As to “bFGF: Recombinant human basic fibroblast growth factor”, the “angiogenesis in Matrigel plug (histology)” value with C57B1/6 mice (plugs harvested after 10 days, representative images of 4 experiments) was “stimulated angiogenesis”. In addition, the “Area of Neovascularization (mm^2) ± SE” value was 2.10 ± 0.14 mm^2 in the assay with CD36 null mice (CD36 −/− mouse, corneal pellet, 5 days) and 2.35 ± 0.10 mm^2 with wild type C57BL/6 mice (Wild type mouse, corneal pellet, 5 days). The “eyes with vigorous outgrowth of blood vessels (angiogenesis)” value with wild type C57BL/6 mice (pellets: bFGF 50 ng, TSP-1 200 ng, HRGP 100 ng, after 5 days) is 13/13. For the same substance, the “induction of tube formation” value in assay [3] (agent alone, low serum) was “induced tube formation”.

With “cysteine-serine-valine-threonine-cysteine-glycine [CSVTCG]”, the “inhibition of binding of plasminogen to TSP-1” value in [4] is reported as “not inhibited”. Also, the “peptide concentration at which inhibition of HRGP binding to TSP-1 reached maximum” value at binding of HRGP to TSP-1 (concentration-dependent inhibition) stood at 50 µM. The “inhibition of binding of HRGP” value on binding of HRGP to TSP-1 is on record as “inhibited”. In addition, in assay [5], the “binding of radiolabelled HRGP to TSP-1 resolved on SDS-PAGE and blotted” value is “completely abolished”.

The values are drawn from US20010041670A1, “Thrombospondin-binding region of histidine-rich glycoprotein and method of use” (priority 1999, published 2001).
